# Results from article PMC8472378, “Desferrioxamine B-Mediated Pre-Clinical In Vivo Imaging of Infection by the Mold Fungus Aspergillus fumigatus” (Journal of Fungi, 2021).
# Tests used:
# [1] = tested on: pulmonary A. fumigatus infection; test: Ex vivo biodistribution in A. fumigatus-infected rats; design: species or system rat; settings: 45 min p.i.; for radioactivity accumulation in non-infected organs (blood, spleen, pancreas, liver, heart and muscle) / route of excretion / uptake in the infected lungs as compared with radiolabeled DFO-B in the same rat: infected rats; for uptake in the infected lungs as compared with radiolabeled DFO-B in the same rat: co-injection
# Method: (§1) A previously described rat model of pulmonary aspergillosis was used for the in vivo experiments. The introduction of A. fumigatus spores into animals, injection of radiolabeled siderophores and small animal imaging were carried out under 2% isoflurane anesthesia (FORANE, Abbott Laboratories, Abbott Park, IL, USA) to minimize animal suffering and prevent animal motion. Infection in the lung of immunodeficient rats was established by intratracheal inoculation of 100 μL of A. fumigatus spores (10^9 CFU/mL A. fumigatus ATCC 46645; American Type Culture Collection) using the TELE PACK VET X LED system equipped with a flexible endoscope (https://www.karlstorz.com/cps/rde/xbcr/karlstorz_assets/ASSETS/3386919.pdf, accessed on 20 August 2021; Karl Storz GmbH & Co. KG, Tuttlingen, Germany). Depending on the development of the infection, experimental animals underwent an ex vivo biodistribution study or PET/CT imaging, typically 2–4 days after inoculation.
# A. fumigatus-infected rats were retro-orbitally (r.o.) injected with [^67Ga]- and [^68Ga]Ga-DFO-B and DFO-E. One infected rat (rat 1) was injected with [^68Ga]Ga-DFO-B and [^67Ga]Ga-DFO-E, while the second rat (rat 2) was […] with [^67Ga]Ga-DFO-B and [^68Ga]Ga-DFO-E (~0.5 MBq and ~0.5 µg of each DFO-B and DFO-E per rat). Rats were sacrificed by exsanguination 45 min post-injection (p.i.). Organs and tissues of interest (blood, spleen, pancreas, kidneys, liver, heart, muscle and lung) were removed and weighed. The amount of radioactivity in the samples was measured in a γ-counter (2480 Wizard-2; Perkin Elmer, Waltham, MA, USA). First, a short-lived ^68Ga was measured immediately after organ removal in the 511 ± 100 keV energy window, and ^67Ga was measured after 24 h in the 185 ± 100 keV energy window. The results are expressed as percentage of injected dose per gram of organ (%ID/g).
# [2] = tested on: A. fumigatus mutant strain (∆sidA/∆ftrA); test: Siderophore utilization via growth promotion on solid minimal medium; format: cell-based, Aspergillus fumigatus; settings: 0.1 µM iron-loaded siderophore, 48 h at 37 °C
# Method: Growth assays were performed on solid Aspergillus minimal medium (AMM), as described above, solidified with 1.8% (w/v) agar. The pH was adjusted with NaOH, and the medium was supplemented with the respective siderophore. The agar plates were point-inoculated with 10^4 spores per dot of ∆sidA∆ftrA [10] and incubated at 37 °C for 48 h.
# Candida albicans = tested on: Candida albicans; design: method as in PMID 23818006; settings: cited from earlier work
# Mycobacterium smegmatis = tested on: Mycobacterium smegmatis; design: method as in PMID 23818006; settings: cited from earlier work
# Staphylococcus aureus = settings: cited from earlier work
# Klebsiella pneumoniae = settings: cited from earlier work
# Rhizopus arrhizus = tested on: Rhizopus arrhizus; design: method as in PMID 23818006; settings: cited from earlier work
# A. fumigatus = settings: cited from earlier work
# Aspergillus flavus = tested on: Aspergillus flavus; design: method as in PMID 23818006; settings: cited from earlier work
# Pseudomonas aeruginosa = settings: cited from earlier work
# Aspergillus terreus = tested on: Aspergillus terreus; design: method as in PMID 23818006; settings: cited from earlier work
# [3] = non-infected rats; cited from earlier work
# [4] = design: method as in PMID 32734456; settings: healthy mice; cited from earlier work
# [5] = design: method as in PMID 32734456; settings: cited from earlier work
# Escherichia coli = tested on: Escherichia coli; design: method as in PMID 22172389, PMID 32734456; settings: cited from earlier work
# [6] = design: method as in PMID 32734456; settings: cited from earlier work; remark: listed apart in the source
# [7] = tested on: A. fumigatus strain Afs77; test: Short-term siderophore uptake analysis; format: cell-based, Aspergillus fumigatus; settings: for uptake efficacy compared to [68Ga]Ga-DFO-E: 45 min at 37 °C
# Method: Short-term uptake of siderophore-complexed ^68Ga was analyzed as described previously. A. fumigatus strain Afs77 [25] was grown for 18 h at 37 °C in 100 mL Aspergillus minimal medium (AMM) according to Pontecorvo et. al. with 1% (w/v) glucose as the carbon source and 20 mM glutamine as the nitrogen source, using iron-free trace elements to induce iron limiting for the transcriptional activation of siderophore uptake. To generate iron-replete mycelia for the transcriptional downregulation of siderophore uptake, the growth medium contained an additional 0.03 mM FeSO4. For the analysis of the pH-dependent siderophore uptake, the pH of the fungal culture medium was adjusted with HCl (1 M) and NaOH (1 M) immediately before the uptake analyses. Uptake assays were performed with 180 µL of liquid A. fumigatus culture added to a prewetted 96-well MultiScreen Filter Plates HTS (1 μm glass fiber filter, Merck Millipore, Darmstadt, Germany). Then, 50 µL of radioactive labelled siderophores (~100 nM) were added to the culture and incubated for 45 min at 37 °C. After washing two times with ice-cold TRIS buffer, the dried filters were measured in a γ-counter.
# [8] = tested on: pulmonary A. fumigatus infection; test: PET/CT imaging in rat model of pulmonary aspergillosis; format: in vivo, Lewis rats; settings: A. fumigatus-infected rats, r.o. injection
# Method: as §1
# µPET/CT images were acquired with an Albira PET/SPECT/CT small animal imaging system (Bruker Biospin Corporation, Woodbridge, CT, USA). […] After reconstruction, acquired data were viewed, analyzed and processed using the appropriate software (PMOD software, PMOD Technologies Ltd., Zurich, Switzerland and VolView software, Kitware, Clifton Park, NY, USA).
# Streptococcus agalactiae = tested on: Streptococcus agalactiae; design: method as in PMID 22172389, PMID 32734456; settings: cited from earlier work
# R. oryzae = tested on: R. oryzae; design: method as in PMID 23818006; settings: cited from earlier work
# Fusarium solani = tested on: Fusarium solani; design: method as in PMID 23818006; settings: cited from earlier work
# [9] = infected rat 1 (injected with [68Ga]Ga-DFO-B and [67Ga]Ga-DFO-E)
# [10] = infected rat 2 (injected with [67Ga]Ga-DFO-B and [68Ga]Ga-DFO-E)
smiles,measurement,setting,value
CC(=O)N([O-])CCCCCNC(=O)CCC(=O)N([O-])CCCCCNC(=O)CCC(=O)N([O-])CCCCCN.[67Ga+3] [[^67Ga]Ga-DFO-B],"radioactivity accumulation in non-infected organs (blood, spleen, pancreas, liver, heart and muscle)",[1],low radioactivity accumulation
same,route of excretion,[1],primary excretion via kidneys
O=C1CCC(=O)N([O-])CCCCCNC(=O)CCC(=O)N([O-])CCCCCNC(=O)CCC(=O)N([O-])CCCCCN1.[Fe+3] [Fe-DFO-E],growth promotion activity,[2]; pH 5 (acidic),promoted the growth
same,growth promotion activity,[2]; pH 7 (neutral),promoted the growth
same,growth promotion activity,[2]; pH 9 (alkaline),promoted the growth
CC(=O)N([O-])CCCCCNC(=O)CCC(=O)N([O-])CCCCCNC(=O)CCC(=O)N([O-])CCCCCN.[Fe+3] [Fe-DFO-B],growth promotion activity,"[2]; pH 5 (acidic), listed as Fe-DFO-B^ac",rescued the growth promotion
same,growth promotion activity,[2]; pH 7 (neutral),promoted growth
same,growth promotion activity,[2]; pH 9 (alkaline),promoted growth
CC(=O)N[C@H]1CCCN2[O][Ga]3[O]N(CCC[C@H](NC(C)=O)C(=O)OCC/C(C)=C/C(=O)N(CCC[C@H](NC(C)=O)C(=O)OCC/C(C)=C/C2=O)[O]3)C(=O)/C=C(\C)CCOC1=O [[^68Ga]Ga-TAFC],in vitro uptake,Candida albicans,no significant uptake
same,in vitro uptake,Mycobacterium smegmatis,no significant uptake
same,in vitro uptake,Staphylococcus aureus,no significant uptake
same,in vitro uptake,Klebsiella pneumoniae,no significant uptake
same,in vitro uptake,Rhizopus arrhizus,uptake
same,in vitro uptake,A. fumigatus,uptake
same,in vitro uptake,Aspergillus flavus,no significant uptake
same,in vitro uptake,Pseudomonas aeruginosa,no significant uptake
same,in vitro uptake,Aspergillus terreus,no significant uptake
O=C1CCC(=O)N([O-])CCCCCNC(=O)CCC(=O)N([O-])CCCCCNC(=O)CCC(=O)N([O-])CCCCCN1.[67Ga+3] [[^67Ga]Ga-DFO-E],"radioactivity accumulation in non-infected organs (blood, spleen, pancreas, liver, heart and muscle)",[1],low radioactivity accumulation
same,route of excretion,[1],primary excretion via kidneys
same,uptake in the infected lungs as compared with radiolabeled DFO-B in the same rat,[1],only slightly higher uptake
CC(=O)N([O-])CCCCCNC(=O)CCC(=O)N([O-])CCCCCNC(=O)CCC(=O)N([O-])CCCCCN.[68Ga+3] [[^68Ga]Ga-DFO-B],accumulation in the lungs,[3],negligible accumulation
same,ratio of 68Ga activity in lung vs. blood,[3],0.84
same,renal excretion,[4],rapid renal excretion
same,retention in the blood and other organs,[4],minimal retention
same,protein binding,[5],low protein binding
same,in vitro uptake,Escherichia coli,lack significant uptake
same,in vitro uptake,Staphylococcus aureus,uptake was found
same,in vitro uptake,Klebsiella pneumoniae,lack significant uptake
same,stability in human serum and PBS,[6],high stability
same,uptake efficacy compared to [68Ga]Ga-DFO-E,"[7]; pH 5, iron-limited culture",approximately 20%
same,uptake efficacy compared to [68Ga]Ga-DFO-E,"[7]; pH 7, iron-limited culture",about 50%
same,uptake efficacy compared to [68Ga]Ga-DFO-E,"[7]; pH 9, iron-limited culture",~80%
same,in vitro uptake,A. fumigatus,uptake was found
same,elimination of unbound tracer,[8]; PET/CT 45 min p.i.,rapidly eliminated via the renal system
same,PET/CT imaging of the infected area in the lungs,[8]; static PET/CT 45 min p.i.,clear depiction of the infected area in the lungs
same,in vitro uptake,Streptococcus agalactiae,uptake was found
same,ratio of activity in lung vs. blood,[1]; [9],about 17
same,ratio of activity in lung vs. blood,[1]; [10],~8
same,"radioactivity accumulation in non-infected organs (blood, spleen, pancreas, liver, heart and muscle)",[1],low radioactivity accumulation
same,route of excretion,[1],primary excretion via kidneys
same,in vitro uptake,Pseudomonas aeruginosa,uptake was found
"CC(=O)N(O)CCCCCNC(=O)CCC(=O)N(O)CCCCCNC(=O)CCC(=O)N(O)CCCCCN [DFO-B, desferrioxamine B]",in vitro uptake compared to the TAFC and DFO-E metal complexes,A. fumigatus,significantly lower in vitro uptake
CC(=O)N([O-])CCCCCNC(=O)CCC(=O)N([O-])CCCCCNC(=O)CCC(=O)N([O-])CCCCCNC(=O)CCC(=O)O.[Fe+3] [Fe-DFO-B^suc],growth promotion activity,[2]; pH 9 (alkaline),lowest growth promotion activity
CC(=O)N([O-])CCCCCNC(=O)CCC(=O)N([O-])CCCCCNC(=O)CCC(=O)N([O-])CCCCCNC(=O)CCC(=O)O.[68Ga+3] [[^68Ga]Ga-DFO-B^suc],uptake efficacy (in words),"[7]; pH 9, 45 min at 37 °C",highly decreased uptake efficacy
O=C1CCC(=O)N([O-])CCCCCNC(=O)CCC(=O)N([O-])CCCCCNC(=O)CCC(=O)N([O-])CCCCCN1.[68Ga+3] [[^68Ga]Ga-DFO-E],accumulation in the lungs,[3],negligible accumulation
same,ratio of 68Ga activity in lung vs. blood,[3],0.79
same,in vitro uptake,Staphylococcus aureus,considerable uptake
same,in vitro uptake,R. oryzae,considerable uptake
same,in vitro uptake,A. fumigatus,highest uptake
same,in vitro uptake,Aspergillus flavus,considerable uptake
same,in vitro uptake,Fusarium solani,considerable uptake
same,ratio of activity in lung vs. blood,[1]; [9],about 17
same,ratio of activity in lung vs. blood,[1]; [10],~8
same,"radioactivity accumulation in non-infected organs (blood, spleen, pancreas, liver, heart and muscle)",[1],low radioactivity accumulation
same,route of excretion,[1],primary excretion via kidneys
same,uptake in the infected lungs as compared with radiolabeled DFO-B in the same rat,[1],only slightly higher uptake
same,in vitro uptake,Aspergillus terreus,considerable uptake
